pIC50: −log10 of the molar value.
What was measured:
[1] = target: T1, recombinant human Cox-1 (r-hu Cox1) (Homo sapiens, UniProt P23219); test: Recombinant human PGHS-1 enzyme assay (RHUCX1); assay type: biochemical; details: for inhibition at 1 µM / inhibition at 10 µM / inhibition at 100 µM: read-out: RHUCX1 % Inh. at Dose; for pIC50: read-out: RHUCX1 IC50 (parenthetical value)
T1 construct: made in house; host or cells: baculovirus/Sf9 insect cells (microsomes)
Procedure, shortened: (§1)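 Recombinant enzyme reaction ran 2.5 minutes at room temperature, then was quenched with HCl and neutralized with NaOH. PGE2 formed with and without drug was quantified by EIA against standards in the same milieu. Percent inhibition versus control mean; IC50 by linear regression.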

[2] = target: T2, recombinant human Cox-2 (r-hu Cox-2) (Homo sapiens, UniProt P35354); test: Recombinant human PGHS-2 enzyme assay (RHUCX2); assay type: biochemical; details: for pIC50: read-out: RHUCX2 IC50 (parenthetical value)
T2 construct: made in house; host or cells: baculovirus/Sf9 insect cells (microsomes)
T2 sequence (P35354 18-604): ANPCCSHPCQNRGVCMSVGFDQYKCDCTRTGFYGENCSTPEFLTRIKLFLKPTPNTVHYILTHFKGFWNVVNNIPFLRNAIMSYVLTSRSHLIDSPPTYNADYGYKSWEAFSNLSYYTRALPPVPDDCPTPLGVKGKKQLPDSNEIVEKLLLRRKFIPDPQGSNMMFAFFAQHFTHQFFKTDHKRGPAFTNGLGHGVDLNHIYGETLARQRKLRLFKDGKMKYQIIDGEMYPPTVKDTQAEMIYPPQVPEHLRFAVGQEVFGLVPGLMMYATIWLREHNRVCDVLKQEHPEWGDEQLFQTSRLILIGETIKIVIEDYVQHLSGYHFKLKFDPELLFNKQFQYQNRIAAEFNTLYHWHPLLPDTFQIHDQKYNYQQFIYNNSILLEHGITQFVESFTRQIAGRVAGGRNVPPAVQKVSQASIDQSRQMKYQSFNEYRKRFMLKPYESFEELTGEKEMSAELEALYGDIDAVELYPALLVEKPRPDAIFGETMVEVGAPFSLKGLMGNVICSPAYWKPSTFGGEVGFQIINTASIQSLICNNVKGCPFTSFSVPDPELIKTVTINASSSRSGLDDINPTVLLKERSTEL
Procedure, shortened: as §1

[3] = target: T3, Human Whole Platelet Cyclooxygenase-1 (Homo sapiens, UniProt P23219); test: Human Whole Platelet Cyclooxygenase-1 assay (HWPX); assay type: cell-based; details: for pIC50: read-out: HWPX IC50 (parenthetical value)
T3 construct: from tissue; host or cells: human blood: isolated platelets (A4) or heparinised whole blood (A9)
Experimental: Blood from normal healthy volunteers is collected into tubes containing ACD (acid citrate dextrose) as the anticoagulant. This blood is centrifuged at 175×g to prepare platelet rich plasma. The platelet rich plasma is then centrifuged at 100×g to pellet the white blood cells, leaving the platelets in the supernatant. The supernatant is layered on a cushion of 0.7 mL of 10% bovine serum albumin in Tyrodes solution (Gibco; Grand Island, N.Y.) and then centrifuged at 1000×g. The resulting supernatant from this centrifuigation is then removed and 11 mL of Tyrodes solution is added to the remaining pellet of platelets. The platelets are then aliquoted at 120 μl into a 96 well plate. Experimental compounds are added and allowed to pre-incubate for 10 minutes. At the end of this pre-incubation period, the calcium ionophore A23187 is added to a final concentration of 8.8 μM and the incubation is continued for ten minutes. The reaction is stopped by adding cold 6 mM EDTA, the incubation mixture is centrifuged at 220×g, and the supernatants are then analyzed for thromboxane using a commercial kit from Cayman Chemical (Ann Arbor, Mich.

[4] = target: T4, human amnionic whole cell cyclooxygenase-2 (WISH cells) (Homo sapiens, UniProt P35354); test: IL-1β induced PGE2 production in WISH cells; assay type: cell-based; details: for pIC50: read-out: Wish IC50 (parenthetical value)
T4 construct: endogenous in cells; host or cells: human amnionic WISH cells, induced with IL-1beta
T4 sequence (P35354 18-604): T2 sequence (P35354 18-604)
Procedure, shortened: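 Confluent (80%) WISH cells were stimulated with 5 ng/ml IL-1β in serum-free Neuman-Tytell medium, with or without test compound in DMSO (0.01% v/v). PGE2 in the culture medium was measured by EIA against standards prepared in the same medium, read by optical density.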

[5] = read-out: RHUCX2 % Inh. at Dose
[6] = read-out: Wish % Inhib. at Dose
[7] = read-out: HWPX % Inhib. at Dose

T3 sequence (P23219 24-599): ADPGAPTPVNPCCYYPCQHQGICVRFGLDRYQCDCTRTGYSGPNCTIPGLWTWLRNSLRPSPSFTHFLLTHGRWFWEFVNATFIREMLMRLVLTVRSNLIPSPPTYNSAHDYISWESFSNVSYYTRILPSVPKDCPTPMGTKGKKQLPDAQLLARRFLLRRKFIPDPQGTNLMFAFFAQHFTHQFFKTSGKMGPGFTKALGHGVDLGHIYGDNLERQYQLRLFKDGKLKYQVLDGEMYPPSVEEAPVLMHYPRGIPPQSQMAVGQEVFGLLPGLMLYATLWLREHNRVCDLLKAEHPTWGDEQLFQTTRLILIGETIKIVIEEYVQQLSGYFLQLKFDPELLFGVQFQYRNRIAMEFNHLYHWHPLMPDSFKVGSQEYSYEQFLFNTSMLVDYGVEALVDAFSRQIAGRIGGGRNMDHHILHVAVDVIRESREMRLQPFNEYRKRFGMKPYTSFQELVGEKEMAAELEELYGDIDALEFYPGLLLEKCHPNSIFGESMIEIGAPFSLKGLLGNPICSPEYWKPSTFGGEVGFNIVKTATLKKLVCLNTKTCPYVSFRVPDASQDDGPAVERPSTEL
T1 sequence (P23219 24-599): as above

Row | Compound | inhibition at 10 µM [1] [%] | inhibition at 0.1 µM [2, 5] [%] | inhibition at 1 µM [2, 5] [%] | pIC50 [3] | pIC50 [4] | melting point [°C] | inhibition at 100 µM [1] [%] | other results
1 | C=C(F)C(F)(F)n1ncc(-c2ccc(S(N)(=O)=O)cc2)c(-c2ccc(F)cc2)c1=O [Example 142, 2-(1,1,2-Trifluoro-2-propenyl)-4-(4-fluorophenyl)-5-[4-(aminosulfonyl)phenyl]-3(2H)-pyridazinone] | 80 | 45 | 96 | 5.12 | 7.06 | 230 to 232 |  | inhibition at 1 µM [1]: 53%; inhibition at 0.01 µM [2, 5]: 32%
2 | NS(=O)(=O)c1ccc(-c2cnn(-c3ccc(F)cc3)c(=O)c2-c2ccc(F)cc2)cc1F [Example 72, 2,4-Bis-(4-fluorophenyl)-5-[3-fluoro-4-(aminosulfonyl)phenyl]-3(2H)-pyridazinone] |  | 18 | 65 | 4.60 | 7.14 | 222 to 224 | 0 | 
3 | CC(C)CCc1c(-c2ccc(S(N)(=O)=O)cc2)cnn(-c2ccc(F)c(F)c2)c1=O [Example 404, 2-(3,4-Difluorophenyl)-4-(3-methylbutyl)-5-[4-(aminosulfonyl)phenyl]-3(2H)-pyridazinone] | 47 | 92 |  | 6.47 |  | 171 to 173 | 77 | inhibition at 0.01 µM [2, 5]: 57%; inhibition at 0.01 µM [4, 6]: 58%; inhibition at 0.1 µM [4, 6]: 96%
4 | Cc1ccc(-c2c(-c3ccc(S(C)(=O)=O)cc3)cnn(-c3cccc(Cl)c3)c2=O)cc1 [Example 370, 2-(3-Chlorophenyl)-4-(4-methylphenyl)-5-[4-(methylsulfonyl)phenyl]-3(2H)-pyridazinone] |  |  |  | 5.08 | 7.70 | 222 to 224 | 8 | pIC50 [2]: 7.32
5 | NS(=O)(=O)c1ccc(-c2cnn(CC(F)=C(F)F)c(=O)c2-c2ccc(F)cc2)cc1 [Example 141, 2-(2,3,3-Trifluoro-2-propen-1-yl)-4-(4-fluorophenyl)-5-[4-(aminosulfonyl)phenyl]-3(2H)-pyridazinone] | 62 | 95 | 99 |  | 8.40 | 173 to 175 | 55 | inhibition at 0.3 µM [3, 7]: 56%
6 | NS(=O)(=O)c1ccc(-c2cnn(-c3ccc(F)c(Cl)c3)c(=O)c2-c2ccc(F)cc2)cc1 [Example 401, 2-(3-Chloro-4-fluorophenyl)-4-(4-fluorophenyl)-5-[4-(aminosulfonyl)phenyl]-3(2H)-pyridazinone] |  | 62 | 96 | 6.49 | 7.77 | 208 to 210 |  | pIC50 [1]: 6.12; inhibition at 0.01 µM [2, 5]: 48%
7 | CC(c1cc(F)cc(F)c1)n1ncc(-c2ccc(S(N)(=O)=O)cc2)c(-c2ccc(F)cc2)c1=O (stereo not drawn) [Example 147, 2-(α-Methyl-3,5-difluorobenzyl)-4-(4-fluorophenyl)-5-[4-(aminosulfonyl)phenyl]-3(2H)-pyridazinone] |  | 64 | 100 |  | 7.54 | 139 to 141 |  | pIC50 [1]: 7.17; inhibition at 0.03 µM ([2]; 0.03 μM, read-out: RHUCX2 % Inh. at Dose): 0%; inhibition at 0.3 µM [3, 7]: 84%
8 | CS(=O)(=O)c1ccc(-c2cnn(-c3ccc(Cl)s3)c(=O)c2-c2ccc(Cl)cc2)cc1 [Example 100, 2-(5-Chloro-2-thienyl)-4-(4-chlorophenyl)-5-[4-(methylsulfonyl)phenyl]-3(2H)-pyridazinone] | 62 | 61 |  | 6.89 | 7.70 | 249 to 251 |  | inhibition at 1 µM [1]: 65%; inhibition at 10 µM ([2]; 10 μM, read-out: RHUCX2 % Inh. at Dose): 100%
9 | CS(=O)(=O)c1ccc(-c2cnn(Cc3ccccc3)c(=O)c2-c2ccc(Cl)cc2)cc1 [Example 53, 2-Benzyl-4-(4-chlorophenyl)-5-[4-(methylsulfonyl)phenyl]-3(2H)-pyridazinone] |  | 77 | 99 |  |  | 157 to 159 | 10 | inhibition at 1 µM ([3]; 1 μM, read-out: HWPX % Inhib. at Dose): 8%; inhibition at 10 µM [3, 7]: 78%; inhibition at 0.01 µM [4, 6]: 44%; inhibition at 0.1 µM [4, 6]: 90%
10 | CS(=O)(=O)c1ccc(-c2cnn(-c3ccc(F)cc3)c(=O)c2C2CCCCC2)cc1 [Example 228, 2-(4-Fluorophenyl)-4-cyclohexyl-5-[4-(methylsulfonyl)phenyl]-3(2H)-pyridazinone] |  |  |  | 4.71 | 7.07 | 231 to 233 | 7 | pIC50 [2]: 6.68
11 | CC(c1ccc(F)c(F)c1F)n1ncc(-c2ccc(S(N)(=O)=O)cc2)c(-c2ccc(F)cc2)c1=O (stereo not drawn) [Example 146, 2-(α-Methyl-2,3,4-trifluorobenzyl)-4-(4-fluorophenyl)-5-[4-(aminosulfonyl)phenyl]-3(2H)-pyridazinone] | 82 | 73 | 100 |  | 7.36 | 192 to 194 |  | inhibition at 1 µM [1]: 53%; inhibition at 3 µM ([3]; 3 μM, read-out: HWPX % Inhib. at Dose): 46%; inhibition at 10 µM [3, 7]: 84%
12 | CS(=O)(=O)c1ccc(-c2cnn(-c3cccc(Cl)c3)c(=O)c2-c2ccc(F)cc2)cc1 [Example 165] |  |  |  | 5.72 | 7.52 | 232 to 235 | 0 | pIC50 [2]: 5.97
13 | CS(=O)(=O)c1ccc(-c2cnn(-c3cccc(Cl)c3)c(=O)c2OCC2CC2)cc1 [Example 418, 2-(3-Chlorophenyl)-4-cyclopropanemethoxy-5-[4-(methylsulfonyl)phenyl]-3(2H)-pyridazinone] |  | 52 | 85 | 4.85 | 6.60 | 158 to 161 | 33 | inhibition at 0.025 µM ([2]; 0.025 μM, read-out: RHUCX2 % Inh. at Dose): 53%
14 | CC(C)(C)COc1c(-c2ccc(S(N)(=O)=O)c(F)c2)cnn(CC(F)(F)F)c1=O [Example 381, 2-(2,2,2-Trifluoroethyl)-4-(2,2-dimethylpropoxy)-5-[3-fluoro-4-(aminosulfonyl)phenyl]-3(2H)-pyridazinone] |  |  |  |  | 7.12 | 144 to 145 | 0 | pIC50 [2]: 6.73; inhibition at 30 µM ([3]; 30 μM, read-out: HWPX % Inhib. at Dose): 31%; inhibition at 100 µM ([3]; 100 μM, read-out: HWPX % Inhib. at Dose): 91%
15 | CS(=O)(=O)c1ccc(-c2cnn(-c3cccc(Cl)c3)c(=O)c2C2CCCCC2)cc1 [Example 368, 2-(3-Chlorophenyl)-4-cyclohexyl-5-[4-(methylsulfonyl)phenyl]-3(2H)-pyridazinone] |  | 65 | 96 | 4.86 |  | 85 to 90 | 13 | inhibition at 0.01 µM [4, 6]: 33%; inhibition at 0.03 µM ([4]; 0.03 μM, read-out: Wish % Inhib. at Dose): 64%

Source: patent US20020028938A1, “Prostaglandin endoperoxide H synthase biosynthesis inhibitors” (priority 1997, published 2002)
